US7750024B2, “Remedy for glioblastoma” (Astellas Pharma Inc., priority 2002, dated 2010)
Several values for one entry are separate records, joined by “and”; a condition that tells them apart may be missing. Identical values can stand only once.

Tests used:
[1] = tested on: Human glioblastoma cell (CGNH-89 cell line); test: Apoptosis by TUNEL method in human glioblastoma cells in vitro; type: cell-based
Description: (§1) Human glioblastoma cell (CGNH-89 cell line) was used at this experiment. These cells were randomly divided in the following three groups: a group of a glutamate-free medium (no glutamate group; control group); a group of the glutamate-free medium added 100 μM glutamate (100 μM glutamate group); a group of the glutamate-free medium added 100 μM glutamate and 20 μM NBQX (100 μM glutamate+20 μM NBQX group). The cells were incubated for 48 hours. The CGNH-89 cell was cultured in DMEM (Dulbecco's modified Eagle's medium) supplemented with 10% dialyzed fetal calf serum.
(§2) CGNH-89 cell line was established through resection from the tumor at the right front lobe of a person according to the Explant method by Nicolas et al. (Science 196, 60-63, 1977). […] Additionally, the mRNAs of GluR1 through GluR4 were analyzed with antibodies against the AMPA receptor subunits GluR1, GluR2, GluR3 and GluR4 and RT-PCR. Consequently, the cell line expresses GluR1 and GluR4 but not expresses GluR2 and GluR3. As described above, the cell line has the same profile as that of the cell of primary glioblastoma de novo.
(§3) The anti-tumor action was evaluated by calculating the apoptosis score by TUNEL method (terminal deoxynucleotide transferase (TdT)-mediated dUTP nick end labeling) 48 hours after culturing. Additionally, proliferation of the human glioblastoma cell was evaluated, using the antibody Ki67.
(§4) The results are shown as mean±standard deviation and statistically analyzed by the Student's t-test. Significance level was set at p<0.05.

[2] = tested on: Human glioblastoma cell (CGNH-89 cell line); test: Proliferation of human glioblastoma cells by Ki67 antibody staining in vitro; type: cell-based
Description: as §1, §2, §3, §4

C6 and RG2 glioma = C6 and RG2 glioma transplanted rats; cited from earlier work
[3] = tested on: CGNH-89 human glioblastoma; test: Growth inhibition on glioblastoma in vivo, CGNH-89 transplanted subcutaneously in nude mice; conditions: 100 mg/kg intraperitoneally for 14 days vs PBS; days 11 and 13 after onset and days 2, 4, 6, 8 after completion of administration
Description: Nude mice (5-6 weeks old) were used at this experiment. 10^7 cells of CGNH-89 used in Example 1 were transplanted subcutaneously in the nude mice. On the next day of transplantation, the mice were divided randomly in two groups; a group (n=12) to be administered with 100 mg/kg compound A and a group (n=12) to be administered with PBS (phosphate buffered saline). The drug was administered repeatedly intraperitoneally for 14 days starting on the next day of transplantation. Up to day 8 after the completion of the administration, the mice were observed. The tumor size was measured every two days with a vernier micrometer, to calculate the volume according to the formula (length×width^2)×½.
The results are shown in mean±standard deviation and statistically analyzed by the Student's t-test. The significance level was set at p<0.05.

[4] = 100 μM glutamate alone added to glutamate-free medium, 48 hours
[5] = 20 μM NBQX + 100 μM glutamate, 48 hours incubation, mean±SD
[6] = 20 μM NBQX with 100 μM glutamate, 48 hours

N[C@@H](CCC(=O)O)C(=O)O [glutamate]
TUNEL-SCORE (ratio of apoptosis) [1, 4]: 3% and 3.0 ± 2.0% | staining index with Ki-67 (proliferation inhibiting activity) [2, 4]: 18.5% and 18.5 ± 3.0%

NS(=O)(=O)c1cccc2c1c([N+](=O)[O-])cc1nc(O)c(O)nc12 [NBQX, 2,3-dihydroxy-6-nitro-7-sulfamoyl-benzo(F)-quinoxaline]
TUNEL-SCORE (ratio of apoptosis) [1, 5]: 13.0 ± 2.0% | effect on glutamate-induced suppression of apoptosis [1, 6]: induced the apoptosis | staining index with Ki-67 (proliferation inhibiting activity) [2, 5]: 2.0 ± 1.0% | effect on glutamate-induced proliferative activity [2, 6]: suppressed the glutamate-induced proliferative activity

C[C@]12N[C@H](Cc3ccccc31)c1ccccc12 [MK-801]
proliferation inhibition (C6 and RG2 glioma): exert a proliferation inhibition

O.O=C(O)Cn1c(=O)c(=O)[nH]c2cc([N+](=O)[O-])c(-n3ccnc3)cc21 [Compound A, [7-(1H-imidazol-1-yl)-6-nitro-2,3-dioxo-3,4-dihydroquinoxalin-1 (2H)-yl]acetic acid•monohydrate]
tumor growth inhibition (tumor volume) [3]: significant tumor growth inhibition

CC12CC3CC(C)(C1)CC(N)(C3)C2 [memantin]
proliferation inhibition (C6 and RG2 glioma): exert a proliferation inhibition
